How the values were obtained:
[1] = interaction with water (water solubility); type: physicochemical; conditions: 2 g in 100 ml distilled water
Procedure: For this test, 2 g of each sample was dissolved by heating in a beaker, 100 ml of distilled water at 70° C. was added and the mixture was stirred at the constant temperature of 70° C. for about 1 hour, after which it was allowed to cool and examined.

[2] = tested on: atopic dermatitis, ichthyosis and age-associated wrinkles; conditions: in vivo; cited from earlier work

## CCCCCCCCCCCCCCCCCC(=O)OCC(O)CO (centres unmarked) [GLYMSA, Glycerol monostearate]
[1]
  Stability (in words): Phase separation on standing
[1]; 70° C., 1 hour, cooled
  Condition of aqueous solution: Emulsion

## O=C(O)CC(O)(CC(=O)O)C(=O)O [citric acid]
[2]
  effect in skin conditions: effective in atopic dermatitis, ichthyosis and reduction of age-associated wrinkles

## CC(O)C(=O)O (centres unmarked) [lactic acid]
[2]
  effect in skin conditions: effective in atopic dermatitis, ichthyosis and reduction of age-associated wrinkles

## O=C(O)C(O)C(O)C(=O)O (centres unmarked) [tartaric acid]
[2]
  effect in skin conditions: effective in atopic dermatitis, ichthyosis and reduction of age-associated wrinkles

— patent US5556970A, “Lanolin fatty acids, a method for their fractionation, cosmetics and drugs for external use” (priority 1992, dated 1996)
